{"source": "the supplement of paper PMC11208160"}
{"test": "recombinant barcode read abundance after kanamycin selection (control-corrected) (log10(CPM+1)); higher = more efficient recombination; sequences stand for … in AGTGCAGAGAAAATCGGCCAGTTTTCTCTGCCTGCAGTCCGCATGCCGT…AGATTTATGCAGCGGACTGCCTTTCTCCCAAAGTGATAAACCGGACAGTATCATGGACCGGTTTTCCCGGTAATCCGTATTTGCAAGGTTGGTTTCACT; site = the 11-nt target", "outline": "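Targets and IS621 bridge RNA target-binding loops were paired in oligos, each with a promoter, a barcode and the J23119-driven first 104 bridge RNA bases. A vector carrying the remaining 73 bp and a T7-inducible recombinase received these by Gibson cloning, and the pool was co-electroporated into E. coli with a donor plasmid. Duplicate plates contained chloramphenicol/ampicillin LB agar (control) or chloramphenicol/ampicillin/kanamycin with 0.1 mM IPTG. Recombination efficiency comes from averaged, control-corrected counts per million of recombinant-junction barcodes, reported as log10(CPM+1).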"}
{"sequence": "CCGCCCGCTTGGGTTCTAACCTGTTGCCT (site CCGCCGGCTAG)", "recombinant barcode read abundance (log10)": 0.083}
{"sequence": "CCGCCCGCTTGGGTTCTAACCTGTTGCCT (site CCGCCTGCTAG)", "recombinant barcode read abundance (log10)": 0.0828}
{"sequence": "CCGCCCTCTTGGGTTCTAACCTGTTGCCT (site CAGCCCTCTAG)", "recombinant barcode read abundance (log10)": 0.0642}
{"sequence": "CCGCCCTCTTGGGTTCTAACCTGTTGCCT (site CCGCCCTCTAG)", "recombinant barcode read abundance (log10)": 1.04}
{"sequence": "CCGCCCTCTTGGGTTCTAACCTGTTGCCT (site CGGCCCTCTAG)", "recombinant barcode read abundance (log10)": 0.105}
{"sequence": "CCGCCCTCTTGGGTTCTAACCTGTTGCCT (site CTGCCCTCTAG)", "recombinant barcode read abundance (log10)": 0.0291}
{"sequence": "CCGCCTCCTTGGGTTCTAACCTGTTGCGA (site CCGCCTCCTTC)", "recombinant barcode read abundance (log10)": 0.616}
{"sequence": "CCGCCTCCTTGGGTTCTAACCTGTTGCGA (site CCGCGTCCTTA)", "recombinant barcode read abundance (log10)": 0.0484}
{"sequence": "CCGCGCCCTTGGGTTCTAACCTGTTGCAT (site ACGCGCCCTGT)", "recombinant barcode read abundance (log10)": 0.0166}
{"sequence": "CCGCGCCCTTGGGTTCTAACCTGTTGCAT (site CCGCGCCCTAT)", "recombinant barcode read abundance (log10)": 0.504}
{"sequence": "CCGCGCTCTTGGGTTCTAACCTGTTGCCT (site CCGCGCACTAG)", "recombinant barcode read abundance (log10)": 0.106}
{"sequence": "CCGCGCTCTTGGGTTCTAACCTGTTGCCT (site CCGCGCTCTAG)", "recombinant barcode read abundance (log10)": 0.641}
{"sequence": "CCGCGCTCTTGGGTTCTAACCTGTTGCTG (site ACGAGCTCTCA)", "recombinant barcode read abundance (log10)": 0}
{"sequence": "CCGCGCTCTTGGGTTCTAACCTGTTGCTG (site CCGCGCTCTCA)", "recombinant barcode read abundance (log10)": 0.379}
{"sequence": "CCGCGGCCTTGGGTTCTAACCTGTTGCCT (site ACGCGGCCTAG)", "recombinant barcode read abundance (log10)": 0.0555}
{"sequence": "CCGCGGCCTTGGGTTCTAACCTGTTGCCT (site CCGCGGCCTAG)", "recombinant barcode read abundance (log10)": 0.459}
{"sequence": "CCGCGGCCTTGGGTTCTAACCTGTTGCCT (site GCGCGGCCTAG)", "recombinant barcode read abundance (log10)": 0.0271}
{"sequence": "CCGCGGCCTTGGGTTCTAACCTGTTGCCT (site TCGCGGCCTAG)", "recombinant barcode read abundance (log10)": 0.0221}
{"sequence": "CCGCTACCTTGGGTTCTAACCTGTTGCCT (site CAGCTACCTAG)", "recombinant barcode read abundance (log10)": 0.109}
{"sequence": "CCGCTACCTTGGGTTCTAACCTGTTGCCT (site CCGCTACCTAG)", "recombinant barcode read abundance (log10)": 0.956}
{"sequence": "CCGCTACCTTGGGTTCTAACCTGTTGCCT (site CGGCTACCTAG)", "recombinant barcode read abundance (log10)": 0.103}
{"sequence": "CCGCTACCTTGGGTTCTAACCTGTTGCCT (site CTGCTACCTAG)", "recombinant barcode read abundance (log10)": 0.19}
{"sequence": "CCGCTGTCTTGGGTTCTAACCTGTTGCCT (site CCGCTGTCTAG)", "recombinant barcode read abundance (log10)": 0.394}
{"sequence": "CCGCTGTCTTGGGTTCTAACCTGTTGCCT (site CCTCTGGCTAG)", "recombinant barcode read abundance (log10)": 0.167}
{"sequence": "CCGGACCCTTGGGTTCTAACCTGTTGCTG (site CCGGACCCTCA)", "recombinant barcode read abundance (log10)": 2.49}
{"sequence": "CCGGACCCTTGGGTTCTAACCTGTTGCTG (site CCGTGCCCTCA)", "recombinant barcode read abundance (log10)": 0.336}
{"sequence": "CCGGATGCTTGGGTTCTAACCTGTTGCCT (site CCGAATGCTAG)", "recombinant barcode read abundance (log10)": 0.272}
{"sequence": "CCGGATGCTTGGGTTCTAACCTGTTGCCT (site CCGCATGCTAG)", "recombinant barcode read abundance (log10)": 0.117}
{"sequence": "CCGGATGCTTGGGTTCTAACCTGTTGCCT (site CCGGATGCTAG)", "recombinant barcode read abundance (log10)": 0.775}
{"sequence": "CCGGATGCTTGGGTTCTAACCTGTTGCCT (site CCGTATGCTAG)", "recombinant barcode read abundance (log10)": 0.0746}
{"sequence": "CCGGATTCTTGGGTTCTAACCTGTTGCCT (site CCGGATTCTAG)", "recombinant barcode read abundance (log10)": 1.69}
{"sequence": "CCGGATTCTTGGGTTCTAACCTGTTGCCT (site CCGGTTGCTAG)", "recombinant barcode read abundance (log10)": 0.369}
{"sequence": "CCGGTAACTTGGGTTCTAACCTGTTGCCT (site CCGGTAACTAG)", "recombinant barcode read abundance (log10)": 0.45}
{"sequence": "CCGGTAACTTGGGTTCTAACCTGTTGCCT (site CCTGTAGCTAG)", "recombinant barcode read abundance (log10)": 0.142}
{"sequence": "CCGGTAGCTTGGGTTCTAACCTGTTGCCA (site CCGGTAGCTTG)", "recombinant barcode read abundance (log10)": 0.443}
{"sequence": "CCGGTAGCTTGGGTTCTAACCTGTTGCCA (site GCAGTAGCTTG)", "recombinant barcode read abundance (log10)": 0.556}
{"sequence": "CCGGTATCTTGGGTTCTAACCTGTTGCCT (site CCGATATCTAG)", "recombinant barcode read abundance (log10)": 0.0308}
{"sequence": "CCGGTATCTTGGGTTCTAACCTGTTGCCT (site CCGCTATCTAG)", "recombinant barcode read abundance (log10)": 0.688}
{"sequence": "CCGGTATCTTGGGTTCTAACCTGTTGCCT (site CCGGTATCTAG)", "recombinant barcode read abundance (log10)": 0.197}
{"sequence": "CCGGTATCTTGGGTTCTAACCTGTTGCCT (site CCGTTATCTAG)", "recombinant barcode read abundance (log10)": 0.0727}
{"sequence": "CCGGTGCCTTGGGTTCTAACCTGTTGCCT (site CAGGTGCCTAG)", "recombinant barcode read abundance (log10)": 0.0703}
{"sequence": "CCGGTGCCTTGGGTTCTAACCTGTTGCCT (site CCGGTGCCTAG)", "recombinant barcode read abundance (log10)": 2.29}
{"sequence": "CCGGTGCCTTGGGTTCTAACCTGTTGCCT (site CGGGTGCCTAG)", "recombinant barcode read abundance (log10)": 1.03}
{"sequence": "CCGGTGCCTTGGGTTCTAACCTGTTGCCT (site CTGGTGCCTAG)", "recombinant barcode read abundance (log10)": 0.21}
{"sequence": "CCGTAAGCTTGGGTTCTAACCTGTTGCCT (site CCGTAAACTAG)", "recombinant barcode read abundance (log10)": 0.139}
{"sequence": "CCGTAAGCTTGGGTTCTAACCTGTTGCCT (site CCGTAACCTAG)", "recombinant barcode read abundance (log10)": 0.0711}
{"sequence": "CCGTAAGCTTGGGTTCTAACCTGTTGCCT (site CCGTAAGCTAG)", "recombinant barcode read abundance (log10)": 0.105}
{"sequence": "CCGTAAGCTTGGGTTCTAACCTGTTGCCT (site CCGTAATCTAG)", "recombinant barcode read abundance (log10)": 0.0655}
{"sequence": "CCGTACTCTTGGGTTCTAACCTGTTGCCT (site CCGTACTCTAG)", "recombinant barcode read abundance (log10)": 1.22}
{"sequence": "CCGTACTCTTGGGTTCTAACCTGTTGCCT (site CCGTAGTCTAG)", "recombinant barcode read abundance (log10)": 0.0897}
{"sequence": "CCGTCTACTTGGGTTCTAACCTGTTGCCT (site CAGTCTACTAG)", "recombinant barcode read abundance (log10)": 0.0408}
{"sequence": "CCGTCTACTTGGGTTCTAACCTGTTGCCT (site CCGTCTACTAG)", "recombinant barcode read abundance (log10)": 0.0187}
{"sequence": "CCGTCTACTTGGGTTCTAACCTGTTGCCT (site CGGTCTACTAG)", "recombinant barcode read abundance (log10)": 0.0454}
{"sequence": "CCGTCTACTTGGGTTCTAACCTGTTGCCT (site CTGTCTACTAG)", "recombinant barcode read abundance (log10)": 0.082}
{"sequence": "CCGTCTACTTGGGTTCTAACCTGTTGCTA (site CCGTCTACTAA)", "recombinant barcode read abundance (log10)": 0.02}
{"sequence": "CCGTCTACTTGGGTTCTAACCTGTTGCTA (site CCGTCTACTCA)", "recombinant barcode read abundance (log10)": 0.161}
{"sequence": "CCGTCTACTTGGGTTCTAACCTGTTGCTA (site CCGTCTACTGA)", "recombinant barcode read abundance (log10)": 0.125}
{"sequence": "CCGTCTACTTGGGTTCTAACCTGTTGCTA (site CCGTCTACTTA)", "recombinant barcode read abundance (log10)": 0.259}
{"sequence": "CCGTGCCCTTGGGTTCTAACCTGTTGCGT (site CCGTGCCCTAC)", "recombinant barcode read abundance (log10)": 1.92}
{"sequence": "CCGTGCCCTTGGGTTCTAACCTGTTGCGT (site TCGTGCCCTAC)", "recombinant barcode read abundance (log10)": 0.0224}
{"sequence": "CCGTGCCCTTGGGTTCTAACCTGTTGCTG (site CCGGACCCTCA)", "recombinant barcode read abundance (log10)": 0.111}
{"sequence": "CCGTGCCCTTGGGTTCTAACCTGTTGCTG (site CCGTGCCCTCA)", "recombinant barcode read abundance (log10)": 1.62}
{"sequence": "CCTAAAACTTGGGTTCTAACCTGTTGCCT (site CCTAAAACTAG)", "recombinant barcode read abundance (log10)": 0.0998}
{"sequence": "CCTAAAACTTGGGTTCTAACCTGTTGCCT (site GAACTCTCTTA)", "recombinant barcode read abundance (log10)": 0.0257}
{"sequence": "CCTAACCCTTGGGTTCTAACCTGTTGCGT (site CCTAAACCTAC)", "recombinant barcode read abundance (log10)": 0.39}
{"sequence": "CCTAACCCTTGGGTTCTAACCTGTTGCGT (site CCTAACCCTAC)", "recombinant barcode read abundance (log10)": 1.85}
{"sequence": "CCTAACCCTTGGGTTCTAACCTGTTGCGT (site CCTAAGCCTAC)", "recombinant barcode read abundance (log10)": 0.0306}
{"sequence": "CCTAACCCTTGGGTTCTAACCTGTTGCGT (site CCTAATCCTAC)", "recombinant barcode read abundance (log10)": 0.381}
{"sequence": "CCTAAGACTTGGGTTCTAACCTGTTGCCA (site CCTAAGACTAG)", "recombinant barcode read abundance (log10)": 0.08}
{"sequence": "CCTAAGACTTGGGTTCTAACCTGTTGCCA (site CCTAAGACTCG)", "recombinant barcode read abundance (log10)": 0.133}
{"sequence": "CCTAAGACTTGGGTTCTAACCTGTTGCCA (site CCTAAGACTGG)", "recombinant barcode read abundance (log10)": 0.0159}
{"sequence": "CCTAAGACTTGGGTTCTAACCTGTTGCCA (site CCTAAGACTTG)", "recombinant barcode read abundance (log10)": 0}
{"sequence": "CCTAAGACTTGGGTTCTAACCTGTTGCCT (site CCTAAGACTAG)", "recombinant barcode read abundance (log10)": 0.595}
{"sequence": "CCTAAGACTTGGGTTCTAACCTGTTGCCT (site CCTAAGACTCG)", "recombinant barcode read abundance (log10)": 0.0786}
{"sequence": "CCTAAGACTTGGGTTCTAACCTGTTGCCT (site CCTAAGACTGG)", "recombinant barcode read abundance (log10)": 0.0702}
{"sequence": "CCTAAGACTTGGGTTCTAACCTGTTGCCT (site CCTAAGACTTG)", "recombinant barcode read abundance (log10)": 0.0542}
{"sequence": "CCTAAGCCTTGGGTTCTAACCTGTTGCAT (site CCTAAGCCTAT)", "recombinant barcode read abundance (log10)": 0.859}
{"sequence": "CCTAAGCCTTGGGTTCTAACCTGTTGCAT (site GGACGCACTCC)", "recombinant barcode read abundance (log10)": 0.111}
{"sequence": "CCTAATACTTGGGTTCTAACCTGTTGCTT (site ACTAATCCTAA)", "recombinant barcode read abundance (log10)": 0.107}
{"sequence": "CCTAATACTTGGGTTCTAACCTGTTGCTT (site CCTAATACTAA)", "recombinant barcode read abundance (log10)": 0.155}
{"sequence": "CCTACATCTTGGGTTCTAACCTGTTGCAT (site CCTACATCTAT)", "recombinant barcode read abundance (log10)": 0.252}
{"sequence": "CCTACATCTTGGGTTCTAACCTGTTGCAT (site CCTACATCTTA)", "recombinant barcode read abundance (log10)": 0.0552}
{"sequence": "CCTACATCTTGGGTTCTAACCTGTTGCCT (site CCTACAACTAG)", "recombinant barcode read abundance (log10)": 0.124}
{"sequence": "CCTACATCTTGGGTTCTAACCTGTTGCCT (site CCTACACCTAG)", "recombinant barcode read abundance (log10)": 0.115}
{"sequence": "CCTACATCTTGGGTTCTAACCTGTTGCCT (site CCTACAGCTAG)", "recombinant barcode read abundance (log10)": 0.0484}
{"sequence": "CCTACATCTTGGGTTCTAACCTGTTGCCT (site CCTACATCTAG)", "recombinant barcode read abundance (log10)": 0.123}
